Laboratory results as given in patent US11472791B2 (Incyte Corporation, priority 2019, dated 2022).

Molecular target: CDK2/Cyclin E1 (Homo sapiens (Human), UniProt P24941)
Assay: CDK2/Cyclin E1 HTRF enzyme activity assay
Assay type: biochemical
Conditions: 1 mM ATP
Procedure: Assays are conducted in white 384-well polystyrene plates in a final reaction volume of 8 μL. […] HTRF signals are read after 1 hour at room temperature on a PHERAstar FS plate reader (BMG Labtech). Data is analyzed with IDBS XLFit and GraphPad Prism 5.0 software using a three or four parameter dose response curve to determine IC50 for each compound.

**Q.** How did the IC50 turn out when CCS(=O)(=O)N1CCC(Nc2ncc(C#N)c(-c3cnn(-c4ccc(CN[C@H]5C[C@@](C)(O)C5)cc4Cl)c3)n2)CC1 [Example 192, 4-(1-(2-Chloro-4-((((1s,3s)-3-hydroxy-3-methylcyclobutyl)amino)methyl)phenyl)-1H-pyrazol-4-yl)-2-((1-(ethylsulfonyl)piperidin-4-yl)amino)pyrimidine-5-carbonitrile] was run?
**A.** Its IC50 is < 50 nM.

**Q.** For Cc1nc(CN2CCN(C)CC2)ccc1-n1cc(-c2nc(NC3CCN(S(=O)(=O)c4cn(C)cn4)CC3)ncc2Cl)cn1 [Example 249, 5-Chloro-N-(1-((1-methyl-1H-imidazol-4-yl)sulfonyl)piperidin-4-yl)-4-(1-(2-methyl-6-((4-methylpiperazin-1-yl)methyl)pyridin-3-yl)-1H-pyrazol-4-yl)pyrimidin-2-amine], which IC50 is on record?
**A.** The IC50 was < 50 nM.

**Q.** How did the IC50 turn out when CC(C)(O)Cn1cc(-c2nc(NC3CCN(S(=O)(=O)CCCO)CC3)ncc2C(F)(F)F)cn1 [Example 92, 3-((4-((4-(1-(2-Hydroxy-2-methylpropyl)-1H-pyrazol-4-yl)-5-(trifluoromethyl)pyrimidin-2-yl)amino)piperidin-1-yl)sulfonyl)propan-1-ol] was run?
**A.** Its IC50 is < 50 nM.

**Q.** Which IC50 does the source give for CN1CCN(Cc2ccc(-n3cc(-c4nc(NC5CCN(S(C)(=O)=O)CC5)ncc4C#N)cn3)c(Cl)c2)CC1=O [Example 240, 4-(1-(2-Chloro-4-((4-methyl-3-oxopiperazin-1-yl)methyl)phenyl)-1H-pyrazol-4-yl)-2-((1-(methylsulfonyl)piperidin-4-yl)amino)pyrimidine-5-carbonitrile] here?
**A.** The IC50 was < 50 nM.

**Q.** Which IC50 does the source give for [2H]C([2H])([2H])NCc1ccc(-n2cc(-c3nc(N[C@H]4CCN(S(=O)(=O)c5ccn(C)n5)C[C@H]4C)ncc3C#N)cn2)c(Cl)c1 [Example 147, 4-(1-(2-Chloro-4-(((methyl-d3)amino)methyl)phenyl)-1H-pyrazol-4-yl)-2-(((3R,4S)-3-methyl-1-((1-methyl-1H-pyrazol-3-yl)sulfonyl)piperidin-4-yl)amino)pyrimidine-5-carbonitrile] here?
**A.** The IC50 was < 50 nM.

**Q.** Which IC50 does the source give for CC(C)(O)Cn1cc(-c2nc(NC3CCN(S(=O)(=O)CCCNC4CC4)CC3)ncc2C(F)(F)F)cn1 [Example 226, 1-(4-(2-((1-((3-(Cyclopropylamino)propyl)sulfonyl)piperidin-4-yl)amino)-5-(trifluoromethyl)pyrimidin-4-yl)-1H-pyrazol-1-yl)-2-methylpropan-2-ol] here?
**A.** The IC50 was < 50 nM.

**Q.** How did the IC50 turn out when CCNCc1ccc(-n2cc(-c3nc(N[C@H]4CCN(S(=O)(=O)c5cn(C)cn5)C[C@H]4C)ncc3C(F)(F)F)cn2)c(C)n1 [Example 271, 4-(1-(6-((Ethylamino)methyl)-2-methylpyridin-3-yl)-1H-pyrazol-4-yl)-N-((3R,4S)-3-methyl-1-((1-methyl-1H-imidazol-4-yl)sulfonyl)piperidin-4-yl)-5-(trifluoromethyl)pyrimidin-2-amine] was run?
**A.** The IC50 was < 50 nM.

**Q.** With Cc1nn(C2CCN(C)CC2)cc1-c1ccnc(NC2CCN(S(C)(=O)=O)CC2)n1 [Example 16, 4-(3-Methyl-1-(1-methylpiperidin-4-yl)-1H-pyrazol-4-yl)-N-(1-(methylsulfonyl)piperidin-4-yl)pyrimidin-2-amine] as the compound, how does the IC50 read?
**A.** Its IC50 is 50 to 200 nM.

**Q.** [2H]C([2H])([2H])NCc1ccc(-n2cc(-c3nc(N[C@H]4CCN(S(C)(=O)=O)C[C@H]4F)ncc3C#N)cn2)c(Cl)c1 [Example 143, 4-(1-(2-Chloro-4-(((methyl-d3)amino)methyl)phenyl)-1H-pyrazol-4-yl)-2-(((3R,4S)-3-fluoro-1-(methylsulfonyl)piperidin-4-yl)amino)pyrimidine-5-carbonitrile] was tested. Which IC50 did it give?
**A.** The IC50 was < 50 nM.

**Q.** CN1CCC(n2ncc(-c3nc(NC4CCN(S(C)(=O)=O)CC4)ncc3C(F)(F)F)c2C(F)(F)F)CC1 [Example 18, 4-(1-(1-Methylpiperidin-4-yl)-5-(trifluoromethyl)-1H-pyrazol-4-yl)-N-(1-(methylsulfonyl)piperidin-4-yl)-5-(trifluoromethyl)pyrimidin-2-amine] was tested. Which IC50 did it give?
**A.** Its IC50 is 50 to 200 nM.

**Q.** C[C@]1(NCc2ccc(-n3cc(-c4nc(N[C@H]5CCN(S(=O)(=O)C6CC6)C[C@H]5F)ncc4C#N)cn3)c(Cl)c2)C[C@H](O)C1 [Example 155, 4-(1-(2-chloro-4-((((1r,3r)-3-hydroxy-1-methylcyclobutyl)amino)methyl)phenyl)-1H-pyrazol-4-yl)-2-(((3R,4S)-1-(cyclopropylsulfonyl)-3-fluoropiperidin-4-yl)amino)pyrimidine-5-carbonitrile] was tested. Which IC50 did it give?
**A.** The IC50 was < 50 nM.

**Q.** CCS(=O)(=O)N1CCC(Nc2ncc(C#N)c(-c3cnn(-c4ccc(CN[C@@H]5CCCC[C@@]5(C)O)cc4Cl)c3)n2)CC1 (racemic) [Example 287, (±)-4-(1-(2-Chloro-4-((((1r,2r)-2-hydroxy-2-methylcyclohexyl)amino)methyl)phenyl)-1H-pyrazol-4-yl)-2-((1-(ethylsulfonyl)piperidin-4-yl)amino)pyrimidine-5-carbonitrile] was tested. Which IC50 did it give?
**A.** The IC50 was < 50 nM.

**Q.** For [2H]C([2H])([2H])NCc1ccc(-n2cc(-c3nc(N[C@H]4CCN(S(=O)(=O)c5cn(C)cn5)C[C@H]4C)ncc3C#N)cn2)c(C)n1 [Example 150, 2-(((3R,4S)-3-Methyl-1-((1-methyl-1H-imidazol-4-yl)sulfonyl)piperidin-4-yl)amino)-4-(1-(2-methyl-6-(((methyl-d3)amino)methyl)pyridin-3-yl)-1H-pyrazol-4-yl)pyrimidine-5-carbonitrile], which IC50 is on record?
**A.** The IC50 was < 50 nM.

**Q.** CC(C)(O)Cn1cc(-c2nc(NC3CCN(S(=O)(=O)C4CC4)CC3)ncc2Cl)cn1 [Example 56, 1-(4-(5-Chloro-2-((1-(cyclopropylsulfonyl)piperidin-4-yl)amino)pyrimidin-4-yl)-1H-pyrazol-1-yl)-2-methylpropan-2-ol] was tested. Which IC50 did it give?
**A.** The IC50 was < 50 nM.

**Q.** Which IC50 does the source give for CS(=O)(=O)N1CCC(Nc2ncc(C(F)(F)F)c(-c3cnn(C4CCOCC4)c3)n2)CC1 [Example 3, N-(1-(Methylsulfonyl)piperidin-4-yl)-4-(1-(tetrahydro-2H-pyran-4-yl)-1H-pyrazol-4-yl)-5-(trifluoromethyl)pyrimidin-2-amine] here?
**A.** Its IC50 is < 50 nM.

**Q.** Cc1nc(CNC(C)C)ccc1-n1cc(-c2nc(NC3CCN(S(=O)(=O)c4cn(C)cn4)CC3)ncc2C(F)(F)F)cn1 [Example 275, 4-(1-(6-((Isopropylamino)methyl)-2-methylpyridin-3-yl)-1H-pyrazol-4-yl)-N-(1-((1-methyl-1H-imidazol-4-yl)sulfonyl)piperidin-4-yl)-5-(trifluoromethyl)pyrimidin-2-amine] was tested. Which IC50 did it give?
**A.** Its IC50 is < 50 nM.

**Q.** CC(=O)N1CC[C@H](NCc2ccc(-n3cc(-c4nc(NC5CCN(S(C)(=O)=O)CC5)ncc4C#N)cn3)c(Cl)c2)C1 [Example 169, (S)-4-(1-(4-(((1-Acetylpyrrolidin-3-yl)amino)methyl)-2-chlorophenyl)-1H-pyrazol-4-yl)-2-((1-(methylsulfonyl)piperidin-4-yl)amino)pyrimidine-5-carbonitrile] was tested. Which IC50 did it give?
**A.** The IC50 was < 50 nM.

**Q.** With CCS(=O)(=O)N1CCC(Nc2ncc(C#N)c(-c3cnn(-c4ccc(CN5CCN(C)CC5)cc4Cl)c3)n2)CC1 [Example 239, 4-(1-(2-chloro-4-((4-methylpiperazin-1-yl)methyl)phenyl)-1H-pyrazol-4-yl)-2-((1-(ethylsulfonyl)piperidin-4-yl)amino)pyrimidine-5-carbonitrile] as the compound, how does the IC50 read?
**A.** Its IC50 is < 50 nM.

**Q.** For Cc1cc(CN2CCN(C)CC2)ccc1-n1cc(-c2nc(NC3CCN(S(=O)(=O)c4cn(C)cn4)CC3)ncc2C(F)(F)F)cn1 [Example 100, N-(1-((1-Methyl-1H-imidazol-4-yl)sulfonyl)piperidin-4-yl)-4-(1-(2-methyl-4-((4-methylpiperazin-1-yl)methyl)phenyl)-1H-pyrazol-4-yl)-5-(trifluoromethyl)pyrimidin-2-amine], which IC50 is on record?
**A.** Its IC50 is < 50 nM.

**Q.** Which IC50 does the source give for [2H]C([2H])([2H])NCc1ccc(-n2cc(-c3nc(NC4CCN(S(=O)(=O)C5CC5)CC4)ncc3C(F)(F)F)cn2)c(C)c1 [Example 130, N-(1-(Cyclopropylsulfonyl)piperidin-4-yl)-4-(1-(2-methyl-4-(((methyl-d3)amino)methyl)phenyl)-1H-pyrazol-4-yl)-5-(trifluoromethyl)pyrimidin-2-amine] here?
**A.** Its IC50 is < 50 nM.

**Q.** For Cc1cc(CN2CCN(C)CC2)ccc1-n1cc(-c2nc(N[C@H]3CCN(S(=O)(=O)c4ccn(C)n4)C[C@H]3F)ncc2C(F)(F)F)cn1 [Example 103, N-((3R,4S)-3-Fluoro-1-((1-methyl-1H-pyrazol-3-yl)sulfonyl)piperidin-4-yl)-4-(1-(2-methyl-4-((4-methylpiperazin-1-yl)methyl)phenyl)-1H-pyrazol-4-yl)-5-(trifluoromethyl)pyrimidin-2-amine], which IC50 is on record?
**A.** Its IC50 is < 50 nM.

**Q.** Cn1cnc(S(=O)(=O)N2CCC(Nc3ncc(Cl)c(-c4cnn(CC(F)(F)F)c4)n3)CC2)c1 [Example 40, 5-Chloro-N-(1-((1-methyl-1H-imidazol-4-yl)sulfonyl)piperidin-4-yl)-4-(1-(2,2,2-trifluoroethyl)-1H-pyrazol-4-yl)pyrimidin-2-amine] was tested. Which IC50 did it give?
**A.** The IC50 was < 50 nM.

**Q.** For Cc1nc(CN2CCN(C(C)C)CC2)ccc1-n1cc(-c2nc(N[C@H]3CCN(S(=O)(=O)c4cn(C)cn4)C[C@H]3C)ncc2C(F)(F)F)cn1 [Example 257, 4-(1-(6-((4-Isopropylpiperazin-1-yl)methyl)-2-methylpyridin-3-yl)-1H-pyrazol-4-yl)-N-((3R,4S)-3-methyl-1-((1-methyl-1H-imidazol-4-yl)sulfonyl)piperidin-4-yl)-5-(trifluoromethyl)pyrimidin-2-amine], which IC50 is on record?
**A.** Its IC50 is < 50 nM.

**Q.** With C[C@@H](O)CNCc1ccc(-n2cc(-c3nc(NC4CCN(S(C)(=O)=O)CC4)ncc3C#N)cn2)c(Cl)c1 [Example 291, (R)-4-(1-(2-Chloro-4-(((2-hydroxypropyl)amino)methyl)phenyl)-1H-pyrazol-4-yl)-2-((1-(methylsulfonyl)piperidin-4-yl)amino)pyrimidine-5-carbonitrile] as the compound, how does the IC50 read?
**A.** Its IC50 is < 50 nM.

**Q.** For CNCc1ccc(-n2cc(-c3nc(NC4CCN(S(C)(=O)=O)CC4)ncc3Cl)cn2)c(Cl)c1 [Example 124, 5-Chloro-4-(1-(2-chloro-4-((methylamino)methyl)phenyl)-1H-pyrazol-4-yl)-N-(1-(methylsulfonyl)piperidin-4-yl)pyrimidin-2-amine], which IC50 is on record?
**A.** The IC50 was < 50 nM.
